{"source": "patent US7015239B2", "about": "“Fungicide for plants” (Valent BioSciences, Inc., priority 2003, dated 2006)", "key": {"Pythium aphanidermatum": {"tested_on": "Pythium aphanidermatum", "test": "Contact evaluation (microtiter plate)", "assay_type": "cell-based", "protocol": "(§1) Compound solution: Contact evaluations were conducted to determine the anti-fungal activity of each compound against Botrytis cinerea, Sclerotinia sclerotiorum, Pythium aphanidermatum, Rhizoctonia solani, Cercospora arachidicola, Mycosphaerella fijiensis, and Monilinia laxa. Five milligrams of each compound were dissolved in 0.5 milliliter of DMSO for a compound stock solution of 1.0% w/v. Compound stock solutions were serial diluted with DMSO to 20, 10, and 2 ppm final well concentration.\n(§2) Fungi preparation: Botrytis cinerea spores were taken from 6-week-old cultures grown at 22C on full strength potato dextrous agar (PDA) plates. Sclerotinia sclerotiorum, Pythium aphanidermatum, Rhizoctonia solani, and Monilinia laxa mycelia were taken from 4- to 10-day-old shake flask cultures grown at room temperature on full strength potato dextrous broth (PDB). Cercospora arachidicola mycelia were taken from 10- to 14-day-old shake flask cultures grown at room temperature on a full strength PDB amended with peanut oil. Mycosphaerella fijiensis mycelia were taken from 10- to 14-day-old shake flask cultures grown at room temperature on V8 juice broth. Sclerotinia sclerotiorum, Pythium aphanidermatum, Rhizoctonia solani, Cercospora arachidicola, and Mycosphaerella fijiensis mycelia (0.4 g mycelia) were blended for 45 seconds in 20 mL sterile de-ionized water. Monilinia laxa mycelia (1 g mycelia) was blended for 45 seconds in 30 mL of sterile de-ionized water. Botrytis cinerea spores were diluted with quarter strength PDB to 1×10^5 spores/mL final well concentration. All mycelia were diluted in water (1:5 mycelia:water) before distributing into the wells.\n(§3) Microtiter plate preparation: Compound solution (10:L), quarter strength PDB (900:L) and fungi preparation (100:L) were sequentially distributed into 48-well microtiter plates (n=3 replications/compound/rate). A blank consisted of quarter strength PDB and fungi preparation. Commercial fungicide controls (100 ppm diluted with water) consisted of Scala for Botrytis cinerea, Dithane F-45 for Mycosphaerella fijiensis, and Benlate for Sclerotinia sclerotiorum, Pythium aphanidermatum, Rhizoctonia solani, Cercospora arachidicola, and Monilinia laxa. Plates were shaken in a circular rotator at room temperature for 20 minutes, then incubated at 25 C for 24 to 72 hours, depending on the pathogen.\n(§4) Fungal control ratings: Fungal growth in wells containing the compounds were compared to the positive control and fungal inhibition was rated as full, partial, or none. Final readings were the average of the three wells (Table 1)."}, "Cercospora arachidicola": {"tested_on": "Cercospora arachidicola", "test": "Contact evaluation (microtiter plate)", "assay_type": "cell-based", "protocol": "as §1, §2, §3, §4"}, "Botrytis cinerea [1]": {"tested_on": "Botrytis cinerea", "test": "Contact evaluation (microtiter plate)", "assay_type": "cell-based", "protocol": "as §1, §2, §3, §4"}, "Sclerotinia sclerotiorum": {"tested_on": "Sclerotinia sclerotiorum", "test": "Contact evaluation (microtiter plate)", "assay_type": "cell-based", "settings": "Sclerotinia sclerotionum", "protocol": "as §1, §2, §3, §4"}, "Mycosphaerella fijiensis": {"tested_on": "Mycosphaerella fijiensis", "test": "Contact evaluation (microtiter plate)", "assay_type": "cell-based", "protocol": "as §1, §2, §3, §4"}, "Monilinia laxa": {"tested_on": "Monilinia laxa", "test": "Contact evaluation (microtiter plate)", "assay_type": "cell-based", "protocol": "as §1, §2, §3, §4"}, "Rhizoctonia solani": {"tested_on": "Rhizoctonia solani", "test": "Contact evaluation (microtiter plate)", "assay_type": "cell-based", "settings": "Rhizoctinia solani", "protocol": "as §1, §2, §3, §4"}, "Botrytis cinerea [2]": {"tested_on": "Botrytis cinerea", "test": "Detached bean leaf bioassay, fungal control", "assay_type": "in vivo", "settings": "three days after inoculation, 100 minus percent necrotic area", "protocol": "(§5) Detached Bean Leaf Bioassay\n(§6) Compound solution: Compound solutions were prepared by diluting compound stock solutions (1.0% w/v compound in DMSO) to 200 ppm with 0.01% w/v Triton X-100.\nSpore solution preparation: Botrytis cinerea spores were taken from 6-week-old cultures grown at 22 C on full strength potato dextrous agar (PDA) plates and harvested in 1:16 frozen orange juice concentrate:water. Botrytis cinerea spore solutions were prepared by diluting spore cultures to 5×10^4 spores/mL with 1:16 frozen orange juice concentrate:water.\n(§7) Plant material: Middle trifoliate leaves of greenhouse grown Phaseolus vulgaris (Bush bean cv. Blue Lake 274) were excised and placed on a plastic grid above a tray containing moist towels.\nTreatment method: One half of the adaxial surface of the leaf was treated with the compound solution (100:L) using a 3 cm Bacti Cell Spreader. A blank consisted of 0.01% w/v Triton X-100. A commercial fungicide control (200 ppm diluted with water) consisted of Scala. […]\nFungal control rating: Three days after inoculation with Botrytis, the percent necrotic area under the inoculation droplet was determined. Since the areas under the blank (0.01% w/v Triton X-100) were 100% infected, fungal control was expressed as 100 minus the percent necrotic area, and thus 0% infected is 100% fungal control (n=3 leaves/compound, 5 inoculation droplets/leaf, Table 2)."}, "[3]": {"tested_on": "Phaseolus vulgaris (Bush bean cv. Blue Lake 274) leaves", "test": "Detached bean leaf bioassay, phytotoxicity rating", "assay_type": "in vivo", "protocol": "as §5, §6, §7\nTreatment method: One half of the adaxial surface of the leaf was treated with the compound solution (100:L) using a 3 cm Bacti Cell Spreader. A blank consisted of 0.01% w/v Triton X-100. A commercial fungicide control (200 ppm diluted with water) consisted of Scala. After the solutions dried, the trays containing the leaves were covered and held one day in a growth chamber (22 C). The adaxial surfaces of the leaves were then inoculated with 5–60:L droplets of Botrytis cinerea spore solution.\nPhytotoxicity ratings: Phytotoxicity was rated as 0=no phytotoxicity, l=slight phytotoxicity, 2=moderate phytotoxicity, or 3=excessive phytotoxicity (Table 2)."}}, "data": [{"smiles": "Cc1ccc(-c2cc(-c3ccc(C)cc3)[n+](-c3ccccc3)c(-c3cccc(C)c3)c2)cc1.[O-][Cl+3]([O-])([O-])O", "note": "[formula I]", "values": [{"measurement": "Control of fungi (full, partial, none)", "setting": "Pythium aphanidermatum; fungicide rate 2 ppm", "value": "Full"}, {"measurement": "Control of fungi (full, partial, none)", "setting": "Pythium aphanidermatum; fungicide rate 10 ppm", "value": "Full"}, {"measurement": "Control of fungi (full, partial, none)", "setting": "Pythium aphanidermatum; fungicide rate 20 ppm", "value": "Full"}, {"measurement": "Control of fungi (full, partial, none)", "setting": "Cercospora arachidicola; fungicide rate 2 ppm", "value": "None"}, {"measurement": "Control of fungi (full, partial, none)", "setting": "Cercospora arachidicola; fungicide rate 10 ppm", "value": "Full"}, {"measurement": "Control of fungi (full, partial, none)", "setting": "Cercospora arachidicola; fungicide rate 20 ppm", "value": "Full"}, {"measurement": "Control of fungi (full, partial, none)", "setting": "Botrytis cinerea [1]; fungicide rate 2 ppm", "value": "Partial"}, {"measurement": "Control of fungi (full, partial, none)", "setting": "Botrytis cinerea [1]; fungicide rate 10 ppm", "value": "Full"}, {"measurement": "Control of fungi (full, partial, none)", "setting": "Botrytis cinerea [1]; fungicide rate 20 ppm", "value": "Full"}, {"measurement": "Control of fungi (full, partial, none)", "setting": "Sclerotinia sclerotiorum; fungicide rate 2 ppm", "value": "Full"}, {"measurement": "Control of fungi (full, partial, none)", "setting": "Sclerotinia sclerotiorum; fungicide rate 10 ppm", "value": "Full"}, {"measurement": "Control of fungi (full, partial, none)", "setting": "Sclerotinia sclerotiorum; fungicide rate 20 ppm", "value": "Full"}, {"measurement": "Control of fungi (full, partial, none)", "setting": "Mycosphaerella fijiensis; fungicide rate 2 ppm", "value": "Full"}, {"measurement": "Control of fungi (full, partial, none)", "setting": "Mycosphaerella fijiensis; fungicide rate 10 ppm", "value": "Full"}, {"measurement": "Control of fungi (full, partial, none)", "setting": "Mycosphaerella fijiensis; fungicide rate 20 ppm", "value": "Full"}, {"measurement": "Control of fungi (full, partial, none)", "setting": "Monilinia laxa; fungicide rate 2 ppm", "value": "Full"}, {"measurement": "Control of fungi (full, partial, none)", "setting": "Monilinia laxa; fungicide rate 10 ppm", "value": "Full"}, {"measurement": "Control of fungi (full, partial, none)", "setting": "Monilinia laxa; fungicide rate 20 ppm", "value": "Full"}, {"measurement": "Control of fungi (full, partial, none)", "setting": "Rhizoctonia solani; fungicide rate 2 ppm", "value": "None"}, {"measurement": "Control of fungi (full, partial, none)", "setting": "Rhizoctonia solani; fungicide rate 10 ppm", "value": "Full"}, {"measurement": "Control of fungi (full, partial, none)", "setting": "Rhizoctonia solani; fungicide rate 20 ppm", "value": "Full"}, {"measurement": "Botrytis cinerea control (200 ppm)", "setting": "Botrytis cinerea [2]", "value": 93, "unit": "%"}, {"measurement": "Phytotoxity (200 ppm)", "setting": "[3]", "value": "Slight"}]}]}
